From US6613536B1, “Synthetic peptides and pharmaceutical compositions comprising them for the treatment of systemic lupus erythematosus” (Yeda Research and Development Co. Ltd., priority 1995, dated 2003)

Assays:
SJL/J and BALB/c mice [1] = experiment: Anti-RNP, Sm, Ro and La antibodies in sera of immunized mice (ELISA); type: in vivo, mouse; conditions: for anti-RNP antibodies in sera / anti-Sm, anti-La and anti-Ro antibodies in sera: BALB/c mice; for anti-RNP, anti-Sm and anti-La antibodies in sera: sera diluted 1:10, compared to normal mice or p278
Method: The same sera of the mice as described in Examples 2 and 3 were used for detection of anti-RNP, Sm, Ro and La antibodies.
Plates were purchased as pre-coated plates and were blocked with 1% ovalbumin in PBS for 2 hr. Thereafter the plates were washed as in Example 2 above, incubated in duplicates with 1:10 diluted sera, washed again and ELISA was carried out as described in Example 2 above.

[2] = system: lymph node cells (LNC) of BALB/c and SJL mice; experiment: In vivo inhibition of LNC proliferation responses to the CDR-based peptides; design: species or system mouse; conditions: LNC of treated mice; not shown
Method: BALB/c (FIG. 5a) and SJL (FIG. 5b) mice were immunized with peptides Ia and IIIa (20 μg/mouse in CFA i.d. in the hind footpads), respectively. The mice were also injected i.v. with 200 μg of the above peptides in PBS either 3 days prior to immunization (open squares), at the immunization day (open circles) or at both dates (open triangles). Ten days later the mice were sacrificed and their lymph nodes were removed and tested for proliferation in the presence of different concentrations of the immunizing peptide. Control groups were of LNC taken from mice that were immunized but not treated (filled squares), or treated with control peptide, p307 (half filled squares). The culture mixtures were incubated for 96 hours in enriched RPMI medium containing 1% normal mouse serum prior to addition of ^3H-thymidine. Sixteen hours later cells were harvested and radioactivity was counted. Results are expressed as mean CPM of triplicates.

[3] = system: antibodies in sera of SLE patients and healthy controls; experiment: Antibodies in human sera binding coated peptides or mAb 5G12 (ELISA); conditions: 32 SLE patients in comparison to healthy controls; plates coated 10 μg/ml
Method: Human SLE patients (32 patients) were bled and their sera were tested by ELISA for their ability to bind the peptides Ia, IIa and IIIa, a control peptide p195-212 (a myasthogenic peptide described in PCT publication No. WO 94/00148) or mAb 5G12.
Detection of the antibodies was conducted on plates that were coated with 10 μg/ml of peptides Ia, IIa, IIIa or p195-212 or mAb 5G12, in PBS for 2 hr, washed and blocked with 1% ovalbumin in PBS for an additional 2 hr. ELISA was continued as described after blockage in Example 2 above, using goat anti-human IgG polyclonal antibody conjugated to peroxidase.

SJL/J and BALB/c mice [4] = experiment: Anti-DNA antibodies in sera of immunized mice (ELISA); type: in vivo, mouse; conditions: for anti-DNA antibodies in sera: sera three months after booster; for levels of autoantibodies including anti-DNA and anti-NE antibodies: SJL mice immunized with IIIa, BALB/c mice immunized with Ia
Method: ELISA was utilized for the detection and quantitation of antibodies in experimental mice, and in humans. Polystyrene microtiter plates were coated with the relevant antigen or antibody, and sera dilutions or supernatants derived from the human or mouse cell cultures were added to the blocked plates. Specific binding was determined following the addition of peroxidase-conjugated antibodies against the appropriate immunoglobulin (Ig) (e.g. goat anti-human or goat anti-mouse peroxidase-conjugated antibodies) and the peroxidase substrate. Optical densities were read at 414 nm using an ELISA reader.
SJL/J and BALB/c female mice (6-8 week old) were immunized with 20 μg of peptide Ia or IIIa of the invention, or with a control peptide designated p278 (the peptide desinated Pep 278h described in published PCT International Application WO 94/03208) or with mAb 5G12 emulsified in complete Freund's adjuvant (CFA) in the foot pads. Three weeks later the mice received a booster injection with the same amount of peptide or mAb, in PBS. Thereafter, blood was drawn every two weeks. A fifth group included non-immunized mice.
ELISA was utilized to test the presence of the anti-DNA antibodies in the sera of the mice, as follows : Plates (Nunc) were coated for 90 min with 10 μg/ml of methylated BSA. Thereafter the plates were washed (all the washes were 3 times with PBS/0.05% Tween 20 (Sigma)) and incubated for an additional 90 min with 10 μg/ml of single-stranded DNA (calf thymus DNA (Sigma) that was heated for 15 min at 90° C. and fast-cooled). The plates were washed and blocked overnight with 1% ovalbumin in PBS (Sigma). Thereafter, the plates were washed and incubated with the sera of the mice diluted in the blocking reagent, followed by wash and incubation with 1:500 dilution of goat anti-mouse IgG (Fc receptor specific) polyclonal antibody conjugated to peroxidase. The plates were then washed and developed using ABTS substrate (Sigma), and the color was read using an ELISA reader at 414 nm. Results are expressed as mean OD of each mouse group (5 mice per group).

[5] = system: lymph node cells (LNC) of BALB/c and SJL mice; experiment: In vivo inhibition of LNC proliferation to human mAb 16/6 Id; conditions: 200 μg/mouse i.v., vs not treated or p307
Method: BALB/c (FIG. 7a) and SJL (FIG. 7b) mice were immunized with human mAb 16/6 Id (1 μg/mouse in CFA i.d. in the hind footpads) and were injected (200 μg/mouse i.v. in PBS) with either peptide Ia or IIIa, respectively. Proliferation responses to mAb 16/6 Id were measured in LNC taken from immunized but not-treated mice (filled squares), from mice treated concomitantly with immunization with the control peptide p307 (half filled squares) or from mice treated with the appropriate CDR-based peptide Ia or IIIa (open squares). Proliferation responses were also shown to the immunodominant CDR-based peptide Ia or IIIa of LNC taken from 16/6 Id immunized non-treated mice (filled circles) or from mice treated with the appropriate CDR-based peptide Ia or IIIa (open circles). Results are expressed as mean CPM of triplicates.

BALB/c and SJL mice = experiment: Clinical manifestations of SLE in immunized mice (WBC, proteinuria, kidney analysis); type: in vivo, mouse; conditions: for W.B.C., white blood cell counts / proteinuria: five months after immunization; for number of white blood cells (in words): in comparison to non-immunized mice or p278-immunized mice
Method: The erythrocyte sedimentation rate was determined by diluting the heparinized blood in PBS at a ratio of 1:1. The diluted blood was then passed to a microsampling pipette and the sedimentation was measured 6 hours later. White blood cell counts were determined after the hemolysis of heparinized blood. Proteinuria was measured in a semi-quantitative manner, using a Combistix kit (Ames, Stoke Poges, Slough, U.K.). Immunohistology was performed by incubation of fixed frozen cryostat sections with FITC-labeled antibodies to mouse Ig. Staining was visualized via use of a fluorescent microscope.
BALBtc and SJL mice were immunized with mAb 5G12 or with peptides Ia and IIIa, and five months later were checked by two criteria for manifestation of SLE: white blood cell count (WBC) and proteinuria.
(i) White blood cell count (WBC): The mice were bled, their blood was diluted 1:10 with 1% (vol/vol) acetic acid in order to eliminate the red blood cells, and white blood cells were counted under a normal light microscope.
Proteinuria: The urine of the mice was tested using combisticks (Combistix Kit, Ames) for the presence of protein.

[6] = BALB/c mice immunized with 20 μg in CFA plus booster
[7] = SJL/J mice immunized with 20 μg in CFA plus booster

Substance	anti-RNP antibodies in sera (SJL/J and BALB/c mice [1]; sera diluted 1:10)	anti-Sm, anti-La and anti-Ro antibodies in sera (SJL/J and BALB/c mice [1]; sera diluted 1:10)	anti-RNP, anti-Sm and anti-La antibodies in sera (SJL/J and BALB/c mice [1]; SJL/J mice)	proliferative responses of the LNC to Con A (specificity) [2]	levels of serum antibodies that bind the coated peptide or mAb [3]	anti-DNA antibodies in sera (SJL/J and BALB/c mice [4]; [6])	levels of autoantibodies including anti-DNA and anti-NE antibodies (SJL/J and BALB/c mice [4])	anti-DNA antibodies in sera (SJL/J and BALB/c mice [4]; [7])	proliferative responses to mAb 16/6 Id of LNC ([5]; BALB/c mice immunized with human mAb 16/6 Id)	protein level in urine (in words) (BALB/c and SJL mice; BALB/c mice)	W.B.C., white blood cell counts (BALB/c and SJL mice; BALB/c mice) [per mm^3]	proteinuria (BALB/c and SJL mice; BALB/c mice) [g/L]	protein level in urine (in words) (BALB/c and SJL mice; SJL mice)	proteinuria (BALB/c and SJL mice; SJL mice) [g/L]	number of white blood cells (in words) (BALB/c and SJL mice)	anti-Ro autoantibodies in sera (SJL/J and BALB/c mice [1]; SJL/J mice, sera diluted 1:10)	proliferative responses to mAb 16/6 Id of LNC ([5]; SJL mice immunized with human mAb 16/6 Id)	W.B.C., white blood cell counts (BALB/c and SJL mice; SJL mice) [per mm^3]
TGYYMQWVKQSPEKSLEWIG [peptide Ia]	very high levels of anti-RNP antibodies	produced detectable antibodies	High levels of anti-RNP, anti-Sm and anti-La antibodies	not inhibited	significantly higher levels of antibodies	show presence of anti-DNA antibodies	elevated levels of autoantibodies	Low levels of anti-DNA antibodies	inhibited	High levels of protein	3375 ± 350	0.88 ± 0.076	smaller increase in protein level	0.375 ± 0.04	lower number of white blood cells	–	–	–
YYYCARFLWEPYAMDYWGQGS (YYCARFLWEPYAMDYWGQGS) [peptide IIIa, based on the CDR3 region of the VH chain of mAb 5G12]	very high levels of anti-RNP antibodies	very low levels of anti-Sm, anti-La and anti-Ro antibodies	High levels of anti-RNP, anti-Sm and anti-La antibodies	not inhibited	significantly higher levels of antibodies	did not show presence of anti-DNA antibodies	elevated levels of autoantibodies	high level of anti-DNA antibodies	–	–	3325 ± 400	0.30 ± 0.01	–	0.9 ± 0.075	lower number of white blood cells	extremely high levels of anti-Ro autoantibodies	inhibited	3300 ± 1343
